Laboratory results as given in the supplement of paper PMC10307832.

Key:
Assay in all cases: relative viability (nuclei count vs DMSO), 5 days (fraction); higher = more cells survive
NCI-H2085 = system: NCI-H2085
How it was run: (§1)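 The day after seeding in 1536-well plates, lung cancer cell lines were treated by pin tool with a single drug, or with a fixed anchor-drug dose together with five library-drug doses (not always all listed) in √10 steps. After 5 days, a combined fix-and-stain solution (final 0.05% Triton X-100, 1% formaldehyde, 1 ug/ml Hoechst) was added. Nuclei counted on 4× images gave relative viability as treated counts over vehicle counts, reported as the median of duplicate plates.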

BEN = system: BEN
How it was run: as §1

NCI-H1437 = system: NCI-H1437
How it was run: as §1

NCI-H1975 = system: NCI-H1975
How it was run: as §1

NCI-H1666 = system: NCI-H1666
How it was run: as §1

HCC-44 = system: HCC-44
How it was run: as §1

H3255 = system: H3255
How it was run: as §1

PC-3 [JPC-3] = system: PC-3 [JPC-3]
How it was run: as §1

NCI-H358 = system: NCI-H358
How it was run: as §1

LU99A = system: LU99A
How it was run: as §1

EKVX = system: EKVX
How it was run: as §1

NCI-H647 = system: NCI-H647
How it was run: as §1

LOU-NH91 = system: LOU-NH91
How it was run: as §1

HOP-62 = system: HOP-62
How it was run: as §1

NCI-H2087 = system: NCI-H2087
How it was run: as §1

NCI-H1395 = system: NCI-H1395
How it was run: as §1

COR-L 105 = system: COR-L 105
How it was run: as §1

HCC-827 = system: HCC-827
How it was run: as §1

NCI-H2342 = system: NCI-H2342
How it was run: as §1

SW 1573 = system: SW 1573
How it was run: as §1

EPLC-272H = system: EPLC-272H
How it was run: as §1

LCLC-97TM1 = system: LCLC-97TM1
How it was run: as §1

201T = system: 201T
How it was run: as §1

O=C(O)c1ccc(-c2c[nH]c3ncc(-c4ccccc4)cc23)cc1C1CCCC1 + Nc1ncn([C@H]2C[C@H](O)[C@@H](CO)O2)c(=O)n1 [Decitabine] (partner 2 µM)
relative viability (NCI-H2085; first compound 0.04 µM): 0.588 | relative viability (NCI-H2085; first compound 0.1265 µM): 0.548 | relative viability (NCI-H2085; first compound 0.4 µM): 0.56 | relative viability (NCI-H2085; first compound 1.265 µM): 0.366 | relative viability (BEN; first compound 0.04 µM): 0.621 | relative viability (BEN; first compound 0.1265 µM): 0.901 | relative viability (BEN; first compound 0.4 µM): 0.692 | relative viability (BEN; first compound 1.265 µM): 0.585 | relative viability (NCI-H1437; first compound 0.04 µM): 0.533 | relative viability (NCI-H1437; first compound 0.1265 µM): 0.572 | relative viability (NCI-H1437; first compound 0.4 µM): 0.517 | relative viability (NCI-H1437; first compound 1.265 µM): 0.336 | relative viability (NCI-H1975; first compound 0.04 µM): 0.393 | relative viability (NCI-H1975; first compound 0.1265 µM): 0.447 | relative viability (NCI-H1975; first compound 0.4 µM): 0.554 | relative viability (NCI-H1975; first compound 1.265 µM): 0.376 | relative viability (NCI-H1666; first compound 0.04 µM): 0.689 | relative viability (NCI-H1666; first compound 0.1265 µM): 0.805 | relative viability (NCI-H1666; first compound 0.4 µM): 0.693 | relative viability (NCI-H1666; first compound 1.265 µM): 0.613 | relative viability (HCC-44; first compound 0.04 µM): 0.973 | relative viability (HCC-44; first compound 0.1265 µM): 0.95 | relative viability (HCC-44; first compound 0.4 µM): 0.962 | relative viability (HCC-44; first compound 1.265 µM): 0.864 | relative viability (H3255; first compound 0.04 µM): 0.64 | relative viability (H3255; first compound 0.1265 µM): 0.477 | relative viability (H3255; first compound 0.4 µM): 0.513 | relative viability (H3255; first compound 1.265 µM): 0.495 | relative viability (PC-3 [JPC-3]; first compound 0.04 µM): 0.824 | relative viability (PC-3 [JPC-3]; first compound 0.1265 µM): 0.835 | relative viability (PC-3 [JPC-3]; first compound 0.4 µM): 0.939 | relative viability (PC-3 [JPC-3]; first compound 1.265 µM): 0.74 | relative viability (NCI-H358; first compound 0.04 µM): 0.193 | relative viability (NCI-H358; first compound 0.1265 µM): 0.218 | relative viability (NCI-H358; first compound 0.4 µM): 0.172 | relative viability (NCI-H358; first compound 1.265 µM): 0.115 | relative viability (LU99A; first compound 0.04 µM): 0.88 | relative viability (LU99A; first compound 0.1265 µM): 0.837 | relative viability (LU99A; first compound 0.4 µM): 0.822 | relative viability (LU99A; first compound 1.265 µM): 0.576 | relative viability (EKVX; first compound 0.04 µM): 0.341 | relative viability (EKVX; first compound 0.1265 µM): 0.362 | relative viability (EKVX; first compound 0.4 µM): 0.336 | relative viability (EKVX; first compound 1.265 µM): 0.368 | relative viability (NCI-H647; first compound 0.04 µM): 0.535 | relative viability (NCI-H647; first compound 0.1265 µM): 0.409 | relative viability (NCI-H647; first compound 0.4 µM): 0.388 | relative viability (NCI-H647; first compound 1.265 µM): 0.283 | relative viability (LOU-NH91; first compound 0.04 µM): 0.815 | relative viability (LOU-NH91; first compound 0.1265 µM): 0.859 | relative viability (LOU-NH91; first compound 0.4 µM): 0.832 | relative viability (LOU-NH91; first compound 1.265 µM): 0.718 | relative viability (HOP-62; first compound 0.04 µM): 0.166 | relative viability (HOP-62; first compound 0.1265 µM): 0.241 | relative viability (HOP-62; first compound 0.4 µM): 0.203 | relative viability (HOP-62; first compound 1.265 µM): 0.239 | relative viability (NCI-H2087; first compound 0.04 µM): 0.263 | relative viability (NCI-H2087; first compound 0.1265 µM): 0.273 | relative viability (NCI-H2087; first compound 0.4 µM): 0.351 | relative viability (NCI-H2087; first compound 1.265 µM): 0.364 | relative viability (NCI-H1395; first compound 0.04 µM): 0.727 | relative viability (NCI-H1395; first compound 0.1265 µM): 0.697 | relative viability (NCI-H1395; first compound 0.4 µM): 0.731 | relative viability (NCI-H1395; first compound 1.265 µM): 0.728 | relative viability (COR-L 105; first compound 0.04 µM): 0.68 | relative viability (COR-L 105; first compound 0.1265 µM): 0.62 | relative viability (COR-L 105; first compound 0.4 µM): 0.703 | relative viability (COR-L 105; first compound 1.265 µM): 0.72 | relative viability (HCC-827; first compound 0.04 µM): 0.263 | relative viability (HCC-827; first compound 0.1265 µM): 0.316 | relative viability (HCC-827; first compound 0.4 µM): 0.273 | relative viability (HCC-827; first compound 1.265 µM): 0.337 | relative viability (NCI-H2342; first compound 0.04 µM): 0.724 | relative viability (NCI-H2342; first compound 0.1265 µM): 0.663 | relative viability (NCI-H2342; first compound 0.4 µM): 0.836 | relative viability (NCI-H2342; first compound 1.265 µM): 0.731 | relative viability (SW 1573; first compound 0.04 µM): 0.403 | relative viability (SW 1573; first compound 0.1265 µM): 0.546 | relative viability (SW 1573; first compound 0.4 µM): 0.505 | relative viability (SW 1573; first compound 1.265 µM): 0.407 | relative viability (EPLC-272H; first compound 0.04 µM): 0.351 | relative viability (EPLC-272H; first compound 0.1265 µM): 0.402 | relative viability (EPLC-272H; first compound 0.4 µM): 0.388 | relative viability (EPLC-272H; first compound 1.265 µM): 0.277 | relative viability (LCLC-97TM1; first compound 0.04 µM): 0.254 | relative viability (LCLC-97TM1; first compound 0.1265 µM): 0.226 | relative viability (LCLC-97TM1; first compound 0.4 µM): 0.207 | relative viability (LCLC-97TM1; first compound 1.265 µM): 0.195 | relative viability (201T; first compound 0.04 µM): 0.862 | relative viability (201T; first compound 0.1265 µM): 0.808 | relative viability (201T; first compound 0.4 µM): 0.805 | relative viability (201T; first compound 1.265 µM): 0.811
